Measurements from patent US20060094676A1, “Compositions and methods for treating cancer using compositions comprising an inhibitor of endothelin receptor activity” (priority 2004, published 2006).

Key:
[1] = test system: Me 191-I/GG (Primary) melanoma cells; assay: MTS assay of cell viability after BQ788; type: cell-based; settings: incubation with BQ788 for seven days; Primary line
Description: Cells were cultured on a matrigel matrix that was histologically examined after two weeks (A-F). While the primary melanoma cells remained on top of the gel only (A and B), a fraction of the Cut-met cells invaded the gel (C and D) and the LN-met cells invaded the matrix extensively (E and F). Cell lysates of the three lines were subjected to western blot analysis using an anti-ETRB Ab (G) and an anti-tubulin Ab (H). Untreated, control (vehicle treated), and BQ788 treated cells were subjected to MTS assay to quantify any reduction in cell number. The mean values were calculated and plotted (I) as the percentage of the vehicle treated value+/− SEM.
Human melanoma cell lines Me191-1/GG (Primary), Me 190/DA (Cut-met), Me 275/EP (LN-met) were obtained from the Ludwig Institute (Epalinges, Switzerland) and SK-MEL-28 was obtained from the American Tissue Culture Collection (ATCC). […] After removal of the inserts, MTS solution was added to the well to quantify the cells that migrated through the insert and were attached to the bottom of the well by measuring the OD at 492 nm (Promega). […]
To address the relationship between the level of progression of human melanoma and responsiveness to BQ788 treatment, 3 cell lines that had been grown in culture for a restricted number of passages were used. […] This effect was quantified using the MTS assay.

caspase 6 = assay: Mch2/Caspase-6 colorimetric protease assay on cell lysates; type: cell-based, human; settings: SK-MEL-28; after 3 days of treatment with BQ788
Description: Equal amounts of RNA from cells that were treated with BQ788 for 3 days were subjected to real-time RT-PCR analysis for the detection of BCL-2A1 (A) and ADP ribosyltransferase 3 (B) transcripts. Total amounts are represented in A while relative (to control) values are shown in B. Differences in expression levels are shown as x fold decrease and are statistically significant (p<0.05) unless a column in marked as non significant (N.S.). Lysates of BQ788 treated cells and controls were subjected to an apoptosis ELISA detection test (C). SK-MEL-28 cells were cultured with pan caspase inhibitor (D) or with caspase 6 inhibitor (E) with or without BQ788 for 2.5 days. […] SK-MEL-28 cells were cultured for 3 days in the presence of BQ788 and assayed for caspase 6 activity (F). […]
Caspase 3 inhibitor I (inhibits caspases 3, 6, 7, 8 & 10), cell-permeable (Calbiochem) and Caspase 6 inhibitor II, Cell-Permeable (Calbiochem) were dissolved in DMSO. […] Cell viability was measured using MTS solution in parallel experiments at 5 different time points. Caspase 6 activity was measured using Mch2/Caspase-6 Colorimetric Protease Assay Kit according to the manufacturer's instructions. […] Caspase 6 activity was measured in 4 samples containing equal amounts of protein from each condition by spectrophotometric detection of a chromophore following its release from the labeled caspase 6 substrate VEID. […]

For `CCCC[C@@H](NC(=O)[C@@H](Cc1cn(C(=O)OC)c2ccccc12)NC(=O)[C@H](CC(C)(C)C)NC(=O)N1[C@H](C)CCC[C@@H]1C)C(=O)O` [BQ788, N-cis-2,6-dimethylpiperidinocarbonyl-L-γ-methylleucyl-D-1-methoxycarbonyltrptophanyl-D-norleucine], the “reduction in cell number” value [1] was 12% and the “caspase 6 activation” value (caspase 6) was “could be detected”.
